Experimental data reported in patent publication US9896441B2 (Lycera Corporation, priority 2014, dated 2018).

How the values were obtained:
RORγ-LBD = molecular target: T1, RORγ-LBD (Homo sapiens, UniProt P51449); test: RORγ-Ligand Binding Domain (LBD) TR-FRET Assay; assay type: biochemical; settings: for TR-FRET Assay Max Response: maximum response;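 as to TR-FRET Assay Max Response: 665/615 nm signal ratio set to 100 without ursolic acid or test compound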
T1 construct: made in house; host or cells: SF9 cells (baculovirus); used as diluted lysate
T1 sequence (P51449 269-508 limits assumed): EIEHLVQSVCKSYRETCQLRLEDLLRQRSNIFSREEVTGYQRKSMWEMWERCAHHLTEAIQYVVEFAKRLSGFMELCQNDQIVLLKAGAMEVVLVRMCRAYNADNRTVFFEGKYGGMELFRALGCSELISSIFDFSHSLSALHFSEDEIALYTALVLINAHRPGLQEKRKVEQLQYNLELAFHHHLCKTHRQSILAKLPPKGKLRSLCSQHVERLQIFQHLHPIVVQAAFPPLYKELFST
Method in brief: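 SF9 lysate containing His-RORγ-LBD, ~3 nM final; coactivator peptide biotin-SRC1 LXXLL, 200 nM final; ursolic acid 2 μM final; DMSO 1% final; Tris pH 7.0 buffer with KCl, EDTA, DTT, BSA. TR-FRET format.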

Gal4-RORγ-LBD = molecular target: T2, Gal4-RORγ-LBD (Homo sapiens, UniProt P51449); test: Gal4-RORγ Luciferase Reporter Assay in HEK-293T Cells; assay type: cell-based; settings: HEK-293 cells, luciferase reporter; for Gal4-RORγ Assay Max Response: maximum response
T2 construct: expressed in transfected cells
T2 sequence (P51449 269-508 limits assumed): T1 sequence (P51449 269-508 limits assumed)
Method in brief: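 HEK-293 cells were co-transfected with Gal4-RORγ-LBD and a Gal4-luciferase reporter, then exposed overnight at 37 °C to compounds with […] ursolic acid present (0.2% DMSO). Luminescence was read with One-Glo after 10 min at RT, untreated signal was set as 100, and Max Response was taken as the upper plateau of a 4-parameter logistic fit.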

| Compound | EC50 (RORγ-LBD; RORγ-LBD TR-FRET assay) [µM] | TR-FRET Assay Max Response (RORγ-LBD; RORγ-LBD TR-FRET assay) | EC50 (Gal4-RORγ-LBD; in presence of ursolic acid) [µM] | Gal4-RORγ Assay Max Response (Gal4-RORγ-LBD; in presence of ursolic acid) | EC50 (RORγ-LBD; RORγ-LBD TR-FRET) [µM] | EC50 (Gal4-RORγ-LBD; with ursolic acid) [µM] |
| --- | --- | --- | --- | --- | --- | --- |
| C/C(=C\c1ccc2c(c1)N(S(=O)(=O)c1cccc(C(F)(F)F)c1)C[C@H](CCC(=O)N1CC[C@H](C(=O)O)C1)O2)c1c(F)cccc1Cl [Example 129C, (S)-1-(3-((S)-6-((E)-2-(2-chloro-6-fluorophenyl)-prop-1-en-1-yl)-4-((3-(trifluoromethyl)phenyl)sulfonyl)-3,4-dihydro-2H-benzo[b][1,4]oxazin-2-1)propanoyl)pyrrolidine-3-carboxylic acid] | < 0.5 | **** (a value greater than 200) | < 0.5 | ** (a value in the range of greater than 90 to 150) | – | – |
| O=C(O)CC[C@H]1CN(S(=O)(=O)c2cccc(C(F)(F)F)c2)c2cc(/C=C/c3ccc(Cl)cc3F)ccc2O1 [Example 89BH, (S,E)-3-(6-(4-chloro-2-fluorostyryl)-4-((3-(trifluoromethyl)phenyl)sulfonyl)-3,4-dihydro-2H-benzo[b][1,4]oxazin-2-yl)propanoic acid] | – | – | – | – | < 0.5 | > 10 |
| O=C(O)CC[C@H]1CN(S(=O)(=O)c2cc(C(F)(F)F)cnc2OCCO)c2cc(C=C3CCOCC3)ccc2O1 [Example 95O, (S)-3-(4-((2-(2-hydroxyethoxy)-5-(trifluoromethyl)pyridin-3-yl)sulfonyl)-6-((tetrahydro-4H-pyran-4-ylidene)methyl)-3,4-dihydro-2H-benzo[b][1,4]oxazin-2-yl)propanoic acid] | – | – | – | – | < 0.5 | 0.5 to 5 |
| COC(=O)CC[C@H]1CN(S(=O)(=O)c2cccc(C(F)(F)F)c2)c2cc(/C=C(\C)c3c(Cl)cccc3Cl)ccc2O1 [Example 86AF, (S,E)-methyl 3-(6-(2-(2,6-dichlorophenyl)prop-1-en-1-yl)-4-((3-(trifluoromethyl)phenyl)-sulfonyl)-3,4-dihydro-2H-benzo[b][1,4]oxazin-2-yl)propanoate] | – | – | – | – | < 0.5 | 0.5 to 5 |
| O=C(O)CC[C@H]1CN(S(=O)(=O)c2cccc(OC(F)F)c2)c2cc(/C=C/c3ccccc3C(F)(F)F)ccc2O1 [Example 89AO, (S,E)-3-(4-((3-(difluoromethoxy)phenyl)sulfonyl)-6-(2-(trifluoromethyl)styryl)-3,4-dihydro-2H-benzo[b][1,4]oxazin-2-yl)propanoic acid] | – | – | – | – | < 0.5 | 0.5 to 5 |
| CCn1cc(S(=O)(=O)N2C[C@H](CCC(C)(C)O)Oc3ccc(/C=C(\C)c4c(F)cccc4Cl)cc32)c(OCCO)n1 [Example 121C, (S,E)-4-(6-(2-(2-chloro-6-fluorophenyl)prop-1-en-1-yl)-4-((1-ethyl-3-(2-hydroxyethoxy)-1H-pyrazol-4-yl)sulfonyl)-3,4-dihydro-2H-benzo[b][1,4]oxazin-2-yl)-2-methylbutan-2-ol] | < 0.5 | **** (a value greater than 200) | < 0.5 | ** (a value in the range of greater than 90 to 150) | – | – |
| O=C(O)C1CN(C(=O)CC[C@H]2CN(S(=O)(=O)c3cccc(C(F)(F)F)c3)c3cc(/C=C/c4c(Cl)cccc4C(F)(F)F)ccc3O2)C1 [Example 129G, (S,E)-1-(3-(6-(2-chloro-6-(trifluoromethyl)styryl)-4-((3-(trifluoromethyl)-phenyl)sulfonyl)-3,4-dihydro-2H-benzo[b][1,4]oxazin-2-yl)propanoyl)azetidine-3-carboxylic acid] | < 0.5 | **** (a value greater than 200) | < 0.5 | ** (a value in the range of greater than 90 to 150) | – | – |
| COc1cccc(C(F)(F)F)c1/C=C/c1ccc2c(c1)N(S(=O)(=O)c1cccc(C(F)(F)F)c1)C[C@H](CCC(=O)O)O2 [Example 89ER, (S,E)-3-(6-(2-methoxy-6-(trifluoromethyl)styryl)-4-((3-(trifluoromethyl)phenyl)-sulfonyl)-3,4-dihydro-2H-benzo[b][1,4]oxazin-2-yl)propanoic acid] | – | – | – | – | < 0.5 | < 0.5 |
| CC(=O)N1CCN(C(=O)CC[C@H]2CN(S(=O)(=O)c3cccc(C(F)(F)F)c3)c3cc(/C=C(\C)c4c(F)cccc4Cl)ccc3O2)CC1 [Example 127J, (S,E)-1-(4-acetyl-piperazin-1-yl)-3-(6-(2-(2-chloro-6-fluorophenyl)prop-1-en-1-yl)-4-((3-(trifluoro-methyl)-phenyl)sulfonyl)-3,4-dihydro-2H-benzo[b]-[1,4]oxazin-2-yl)propan-1-one] | < 0.5 | *** (a value in the range of greater than 150 to 200) | < 0.5 | ** (a value in the range of greater than 90 to 150) | – | – |
| COC(=O)CC[C@H]1CN(S(=O)(=O)c2cccc(OC(F)F)c2)c2cc(/C=C(\C)c3c(F)cccc3Cl)c(C)cc2O1 [Example 53, (S,E)-Methyl 3-(6-(2-(2-chloro-6-fluorophenyl)prop-1-en-1-yl)-4-((3-(difluoromethoxy)phenyl)sulfonyl)-7-methyl-3,4-dihydro-2H-benzo[b][1,4]oxazin-2-yl)propanoate] | – | – | – | – | < 0.5 | 0.5 to 5 |
| COC(=O)CC[C@H]1CN(S(=O)(=O)c2cccc(OC(F)F)c2)c2c(ccc(/C=C(\C)c3c(F)cccc3Cl)c2C)O1 [Example 59, Methyl (S,E)-3-(6-(2-(2-chloro-6-fluorophenyl)prop-1-en-1-yl)-4-((3-(difluoromethoxy)phenyl)sulfonyl)-5-methyl-3,4-dihydro-2H-benzo[b][1,4]oxazin-2-yl)propanoate] | – | – | – | – | < 0.5 | 0.5 to 5 |
| CCOC(=O)C(C)(C)C[C@H]1C[C@H](S(=O)(=O)c2cccc(C(F)(F)F)c2)c2cc(/C=C(\C)c3c(F)cccc3Cl)ccc2O1 [Example 186M, ethyl 3-((2S,45)-6-((E)-2-(2-chloro-6-fluorophenyl)prop-1-en-1-yl)-4-((3-(trifluoromethyl)-phenyl)sulfonyl)chroman-2-yl)-2,2-dimethylpropanoate] | < 0.5 | *** (a value in the range of greater than 150 to 200) | < 0.5 | * (a value in the range of 30 to 90) | – | – |
| C/C(=C\c1ccc2c(c1)N(S(=O)(=O)c1cccc(C(F)(F)F)c1)C[C@H](NS(C)(=O)=O)C2)c1c(F)cccc1Cl [Example 116H, (R,E)-N-(7-(2-(2-chloro-6-fluorophenyl)prop-1-en-1-yl)-1-((3-(trifluoromethyl)phenyl)-sulfonyl)-1,2,3,4-tetra-hydroquinolin-3-yl)methanesulfonamide] | < 0.5 | *** (a value in the range of greater than 150 to 200) | < 0.5 | ** (a value in the range of greater than 90 to 150) | – | – |
| COc1cc(S(=O)(=O)N2CCCc3ccc(OC4CCCc5ccccc54)cc32)ccc1F (stereo not shown) [Example 25C, 1-((4-fluoro-3-methoxyphenyl)sulfonyl)-7-((1,2,3,4-tetrahydronaphthalen-1-yl)oxy)-1,2,3,4-tetrahydroquinoline] | – | – | – | – | < 0.5 | < 0.5 |
| C/C(=C\c1ccc2c(c1)N(S(=O)(=O)c1cccc(C(F)(F)F)c1)C[C@H](NC(=O)C(C)(C)O)C2)c1c(F)cccc1Cl [Example 116F, (R,E)-N-(7-(2-(2-chloro-6-fluorophenyl)prop-1-en-1-yl)-1-((3-(trifluoromethyl)-phenyl)sulfonyl)-1,2,3,4-tetrahydroquinolin-3-yl)-2-hydroxy-2-methylpropanamide] | < 0.5 | *** (a value in the range of greater than 150 to 200) | 0.5 to 5 | * (a value in the range of 30 to 90) | – | – |
| COC(=O)CC[C@H]1CN(S(=O)(=O)c2cccc(OC(F)F)c2)c2cc(/C=C(\C)c3c(F)cccc3Cl)c(F)cc2O1 [Example 43, (S,E)-Methyl 3-(6-(2-(2-chloro-6-fluorophenyl)prop-1-en-1-yl)-4-((3-(difluoromethoxy)phenyl)sulfonyl)-7-fluoro-3,4-dihydro-2H-benzo[b][1,4]oxazin-2-yl)propanoate] | – | – | – | – | < 0.5 | < 0.5 |
| C/C(=C\c1ccc2c(c1)N(S(=O)(=O)c1cccc(C(F)(F)F)c1)C[C@H](CCN)O2)c1c(F)cccc1Cl [Example 111, (S,E)-2-(6-(2-(2-Chloro-6-fluorophenyl)prop-1-en-1-yl)-4-((3-(trifluoromethyl)phenyl)sulfonyl)-3,4-dihydro-2H-benzo[b][1,4]oxazin-2-yl)ethan-1-amine] | < 0.5 | *** (a value in the range of greater than 150 to 200) | 0.5 to 5 | ** (a value in the range of greater than 90 to 150) | – | – |
| O=C(O)CC[C@H]1CN(S(=O)(=O)c2cccc(C(F)F)c2)c2cc(/C=C/c3c(Cl)cccc3C(F)F)ccc2O1 [Example 89EP, (S,E)-3-(6-(2-chloro-6-(difluoromethyl)styryl)-4-((3-(difluoromethyl)phenyl)-sulfonyl)-3,4-dihydro-2H-benzo[b][1,4]oxazin-2-yl)propanoic acid] | – | – | – | – | < 0.5 | < 0.5 |
